What was measured:
[1] = molecular target: T1, rNav1.8 (Rattus norvegicus, UniProt Q62968); experiment: Patch clamp, intracellular KIFMK: block of current density (Fig 6E,F); type: cell-based; details: Fig 6F
T1 construct: expressed in transfected cells; host or cells: ND7/23

[2] = molecular target: T2, hNav1.7 (Homo sapiens, UniProt Q15858); type: cell-based
T2 construct: expressed in transfected cells; host or cells: HEK293T
T2 sequence (Q15858 whole entry): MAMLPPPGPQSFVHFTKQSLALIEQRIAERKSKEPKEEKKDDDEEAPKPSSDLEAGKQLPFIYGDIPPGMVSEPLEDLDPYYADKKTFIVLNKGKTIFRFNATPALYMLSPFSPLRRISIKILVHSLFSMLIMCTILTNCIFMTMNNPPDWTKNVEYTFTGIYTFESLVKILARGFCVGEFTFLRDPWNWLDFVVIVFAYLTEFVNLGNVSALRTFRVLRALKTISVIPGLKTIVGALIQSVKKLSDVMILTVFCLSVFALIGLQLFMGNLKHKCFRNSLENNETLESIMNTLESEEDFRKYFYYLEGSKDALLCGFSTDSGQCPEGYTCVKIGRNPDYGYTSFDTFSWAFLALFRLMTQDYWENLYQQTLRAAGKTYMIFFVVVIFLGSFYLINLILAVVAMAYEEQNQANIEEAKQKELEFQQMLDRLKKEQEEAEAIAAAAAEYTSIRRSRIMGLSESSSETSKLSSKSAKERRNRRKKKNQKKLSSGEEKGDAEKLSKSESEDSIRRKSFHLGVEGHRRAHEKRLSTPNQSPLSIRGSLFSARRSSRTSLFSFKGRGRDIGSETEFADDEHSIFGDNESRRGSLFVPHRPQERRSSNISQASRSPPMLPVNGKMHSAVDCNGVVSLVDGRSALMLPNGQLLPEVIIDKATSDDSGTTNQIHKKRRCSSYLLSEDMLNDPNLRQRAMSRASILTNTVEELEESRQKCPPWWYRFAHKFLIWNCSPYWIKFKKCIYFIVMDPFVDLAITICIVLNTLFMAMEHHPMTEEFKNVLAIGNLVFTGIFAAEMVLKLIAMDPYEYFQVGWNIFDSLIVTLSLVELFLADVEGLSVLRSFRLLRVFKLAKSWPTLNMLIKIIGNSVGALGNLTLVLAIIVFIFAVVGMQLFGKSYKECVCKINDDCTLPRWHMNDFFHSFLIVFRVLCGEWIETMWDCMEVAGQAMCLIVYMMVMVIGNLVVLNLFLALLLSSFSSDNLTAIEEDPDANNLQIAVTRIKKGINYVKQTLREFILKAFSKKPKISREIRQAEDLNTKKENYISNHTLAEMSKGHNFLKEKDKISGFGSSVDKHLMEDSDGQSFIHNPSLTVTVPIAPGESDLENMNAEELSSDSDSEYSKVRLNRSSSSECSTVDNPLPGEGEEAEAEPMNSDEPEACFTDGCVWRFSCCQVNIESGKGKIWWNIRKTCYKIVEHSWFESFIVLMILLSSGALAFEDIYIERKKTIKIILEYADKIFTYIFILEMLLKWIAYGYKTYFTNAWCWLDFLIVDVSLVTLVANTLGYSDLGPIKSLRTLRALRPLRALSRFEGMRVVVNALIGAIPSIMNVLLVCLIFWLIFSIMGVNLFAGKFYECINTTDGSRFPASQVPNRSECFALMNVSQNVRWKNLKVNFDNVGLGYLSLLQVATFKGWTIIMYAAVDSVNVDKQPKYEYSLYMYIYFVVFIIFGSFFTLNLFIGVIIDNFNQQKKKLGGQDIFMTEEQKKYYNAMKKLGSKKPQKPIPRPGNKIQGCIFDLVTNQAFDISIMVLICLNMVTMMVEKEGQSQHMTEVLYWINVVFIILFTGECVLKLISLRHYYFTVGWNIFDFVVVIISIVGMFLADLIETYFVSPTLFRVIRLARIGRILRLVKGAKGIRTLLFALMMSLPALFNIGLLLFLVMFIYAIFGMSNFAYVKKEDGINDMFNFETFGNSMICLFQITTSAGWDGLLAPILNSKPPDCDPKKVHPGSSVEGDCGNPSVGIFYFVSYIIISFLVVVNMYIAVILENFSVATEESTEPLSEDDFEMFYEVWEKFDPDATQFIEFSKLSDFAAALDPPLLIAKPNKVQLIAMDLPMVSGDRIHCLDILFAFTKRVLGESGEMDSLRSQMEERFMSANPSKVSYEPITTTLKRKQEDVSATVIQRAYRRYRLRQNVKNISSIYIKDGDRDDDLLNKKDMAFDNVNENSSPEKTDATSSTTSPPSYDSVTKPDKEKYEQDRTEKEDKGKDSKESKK
T2 sequence (Q07699 19-218, further chain): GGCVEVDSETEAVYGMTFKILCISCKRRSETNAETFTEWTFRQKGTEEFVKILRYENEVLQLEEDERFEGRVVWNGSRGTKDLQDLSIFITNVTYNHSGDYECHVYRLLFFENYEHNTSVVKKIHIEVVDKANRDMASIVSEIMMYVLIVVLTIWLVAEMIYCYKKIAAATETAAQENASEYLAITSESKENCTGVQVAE
T2 sequence (O60939 30-215, further chain): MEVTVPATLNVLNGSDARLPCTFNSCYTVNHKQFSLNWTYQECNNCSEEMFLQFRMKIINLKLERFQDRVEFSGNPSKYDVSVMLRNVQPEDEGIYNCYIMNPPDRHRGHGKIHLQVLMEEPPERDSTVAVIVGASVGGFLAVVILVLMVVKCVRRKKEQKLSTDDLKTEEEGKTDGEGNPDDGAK

T1 sequence (Q62968 whole entry): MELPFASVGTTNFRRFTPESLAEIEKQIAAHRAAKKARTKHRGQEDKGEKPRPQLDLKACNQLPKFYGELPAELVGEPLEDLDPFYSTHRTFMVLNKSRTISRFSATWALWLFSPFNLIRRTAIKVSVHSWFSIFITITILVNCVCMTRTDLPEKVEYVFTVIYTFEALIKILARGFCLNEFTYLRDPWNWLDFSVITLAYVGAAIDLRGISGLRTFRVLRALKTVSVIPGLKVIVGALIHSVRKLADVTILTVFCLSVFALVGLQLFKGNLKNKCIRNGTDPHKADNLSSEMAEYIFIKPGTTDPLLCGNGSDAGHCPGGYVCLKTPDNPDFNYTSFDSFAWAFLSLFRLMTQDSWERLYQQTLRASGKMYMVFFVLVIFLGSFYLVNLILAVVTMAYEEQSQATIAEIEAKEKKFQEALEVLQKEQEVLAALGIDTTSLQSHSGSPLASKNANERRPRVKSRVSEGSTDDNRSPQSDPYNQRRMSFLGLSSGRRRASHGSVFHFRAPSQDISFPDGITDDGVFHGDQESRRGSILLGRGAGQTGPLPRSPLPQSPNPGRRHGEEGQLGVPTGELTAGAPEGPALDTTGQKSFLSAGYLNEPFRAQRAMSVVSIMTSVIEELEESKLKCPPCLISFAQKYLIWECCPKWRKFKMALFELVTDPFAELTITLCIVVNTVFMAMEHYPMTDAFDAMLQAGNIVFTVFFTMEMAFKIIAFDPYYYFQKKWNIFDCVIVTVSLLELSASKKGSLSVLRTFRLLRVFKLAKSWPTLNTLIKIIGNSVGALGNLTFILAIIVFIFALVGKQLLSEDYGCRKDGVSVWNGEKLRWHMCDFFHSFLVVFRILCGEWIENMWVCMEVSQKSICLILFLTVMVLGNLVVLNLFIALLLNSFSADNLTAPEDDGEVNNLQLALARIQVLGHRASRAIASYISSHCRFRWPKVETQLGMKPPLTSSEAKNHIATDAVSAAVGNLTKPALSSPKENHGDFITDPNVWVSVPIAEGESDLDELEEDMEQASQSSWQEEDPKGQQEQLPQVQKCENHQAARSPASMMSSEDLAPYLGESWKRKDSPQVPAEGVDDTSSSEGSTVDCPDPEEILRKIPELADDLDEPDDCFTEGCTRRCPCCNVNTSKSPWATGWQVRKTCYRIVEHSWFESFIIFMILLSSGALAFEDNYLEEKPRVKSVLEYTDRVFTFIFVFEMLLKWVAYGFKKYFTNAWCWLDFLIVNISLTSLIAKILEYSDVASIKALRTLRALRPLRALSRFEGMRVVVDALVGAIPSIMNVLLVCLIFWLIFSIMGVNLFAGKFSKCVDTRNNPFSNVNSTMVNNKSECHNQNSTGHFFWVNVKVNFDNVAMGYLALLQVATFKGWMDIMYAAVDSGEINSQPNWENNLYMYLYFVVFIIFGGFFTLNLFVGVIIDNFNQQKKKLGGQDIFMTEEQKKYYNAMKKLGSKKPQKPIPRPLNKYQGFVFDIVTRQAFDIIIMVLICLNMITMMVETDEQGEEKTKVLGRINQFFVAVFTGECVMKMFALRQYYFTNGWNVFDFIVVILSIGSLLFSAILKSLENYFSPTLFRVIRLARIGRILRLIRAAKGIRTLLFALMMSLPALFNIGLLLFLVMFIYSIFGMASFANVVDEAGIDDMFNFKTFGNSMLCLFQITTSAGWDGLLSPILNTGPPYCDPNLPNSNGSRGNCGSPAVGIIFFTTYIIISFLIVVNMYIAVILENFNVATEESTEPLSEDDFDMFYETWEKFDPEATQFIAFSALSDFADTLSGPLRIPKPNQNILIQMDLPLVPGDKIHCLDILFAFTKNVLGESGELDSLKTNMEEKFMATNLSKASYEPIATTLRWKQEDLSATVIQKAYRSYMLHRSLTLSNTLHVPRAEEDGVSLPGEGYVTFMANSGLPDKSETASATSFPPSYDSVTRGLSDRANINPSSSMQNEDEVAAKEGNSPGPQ

SMILES	IC50 for rNav1.4 and hNav1.5 relative to that for rNav1.8 [1]	inhibition of rpTx1-evoked persistent currents [2]
CC[C@H](C)[C@H](NC(=O)[C@@H](N)CCCCN)C(=O)N[C@@H](Cc1ccccc1)C(=O)N[C@@H](CCSC)C(=O)N[C@@H](CCCCN)C(=O)O [KIFMK]	two time smaller	
NC1=N[C@H](O)[C@H]2[C@H]3O[C@]4(O)O[C@@H]([C@@H](O)[C@@]2(N1)[C@@H]4O)[C@]3(O)CO [TTX, tetrodotoxin]		completely inhibited

Source: publication PMC12130229, “Inherent fast inactivation particle of Nav channels as a new binding site for a neurotoxin” (The EMBO Journal, 2025)
